These results are taken from PMC11247499, “2,8-Disubstituted-1,5-naphthyridines as Dual Inhibitors of Plasmodium falciparum Phosphatidylinositol-4-kinase and Hemozoin Formation with In Vivo Efficacy” (Journal of Medicinal Chemistry, 2024).

Series [1] is described as follows: Solubility, miniaturized shake flask method. The note with it: aqueous solution.
Series [2] has as its system Chinese Hamster Ovary (CHO) cell line. Kind of series: cells. The note with it: MTT assay over 48h, read-out: CHO IC50. The format is cell-based. Background: Formazan colour is commonly taken as a measure of viable cells.
The subject of series [3] is P. falciparum NF54 strain. Kind of series: Antiplasmodial activity, parasite lactate dehydrogenase assay, NF54. The note with it: parasite lactate dehydrogenase assay over 72 h, read-out: Pf IC50 ± SD NF54. The format is cell-based, Plasmodium falciparum.
A further series concerns Dd2. Kind of series: microbe, parasite or virus in culture. Type of series: cell-based. The note with it: Plasmodium falciparum, DD2, 72 h, read-out: Dd2 IC50 ± SD.
Another series deals with β-hematin (βH) formation. The series can be described thus: NP-40 mediated cell-free β-hematin assay. The following applies: read-out: β-hematin IC50; cell-free NP-40 detergent-mediated assay; n = 2.
A further series has as its system Dd2_PI4K_CNV. The series can be described thus: microbe, parasite or virus in culture. Type of series: cell-based. The following applies: Plasmodium falciparum, 72 h, read-out: Dd2_PI4K_CNV IC50.
The next series has as its target PvPI4K (Plasmodium vivax, UniProt A5KB26). The series can be described thus: biochemical. The note with it: purified recombinant PvPI4K, 10 μM ATP, ADP-Glo; mean of N ≥ 2; read-out: PvPI4K IC50 ± SD.
The subject of series [4] is multidrug-resistant strain, K1. The series can be described thus: Antiplasmodial activity, parasite lactate dehydrogenase assay, K1. The format is cell-based, Plasmodium falciparum. The note with it: parasite lactate dehydrogenase assay over 72 h, read-out: Pf IC50 ± SD K1.
The next series is described as follows: in vivo. The following applies: zebrafish, in vivo.
The subject of the next series is zebrafish embryos. The series can be described thus: in vivo.
Setting [5] is: Plasmodium falciparum, NF54, 72 h.
The mark [6] stands for this setting: Plasmodium falciparum, K1, 72 h.

≈ marks a conversion by molar mass, not a printed value. Where “and” joins values, the source holds several entries; their conditions need not be identical. Equal values may be shown once. Read-outs that look alike come from different tables or passages of the source.

Chain of PvPI4K (A5KB26 entry or part of it): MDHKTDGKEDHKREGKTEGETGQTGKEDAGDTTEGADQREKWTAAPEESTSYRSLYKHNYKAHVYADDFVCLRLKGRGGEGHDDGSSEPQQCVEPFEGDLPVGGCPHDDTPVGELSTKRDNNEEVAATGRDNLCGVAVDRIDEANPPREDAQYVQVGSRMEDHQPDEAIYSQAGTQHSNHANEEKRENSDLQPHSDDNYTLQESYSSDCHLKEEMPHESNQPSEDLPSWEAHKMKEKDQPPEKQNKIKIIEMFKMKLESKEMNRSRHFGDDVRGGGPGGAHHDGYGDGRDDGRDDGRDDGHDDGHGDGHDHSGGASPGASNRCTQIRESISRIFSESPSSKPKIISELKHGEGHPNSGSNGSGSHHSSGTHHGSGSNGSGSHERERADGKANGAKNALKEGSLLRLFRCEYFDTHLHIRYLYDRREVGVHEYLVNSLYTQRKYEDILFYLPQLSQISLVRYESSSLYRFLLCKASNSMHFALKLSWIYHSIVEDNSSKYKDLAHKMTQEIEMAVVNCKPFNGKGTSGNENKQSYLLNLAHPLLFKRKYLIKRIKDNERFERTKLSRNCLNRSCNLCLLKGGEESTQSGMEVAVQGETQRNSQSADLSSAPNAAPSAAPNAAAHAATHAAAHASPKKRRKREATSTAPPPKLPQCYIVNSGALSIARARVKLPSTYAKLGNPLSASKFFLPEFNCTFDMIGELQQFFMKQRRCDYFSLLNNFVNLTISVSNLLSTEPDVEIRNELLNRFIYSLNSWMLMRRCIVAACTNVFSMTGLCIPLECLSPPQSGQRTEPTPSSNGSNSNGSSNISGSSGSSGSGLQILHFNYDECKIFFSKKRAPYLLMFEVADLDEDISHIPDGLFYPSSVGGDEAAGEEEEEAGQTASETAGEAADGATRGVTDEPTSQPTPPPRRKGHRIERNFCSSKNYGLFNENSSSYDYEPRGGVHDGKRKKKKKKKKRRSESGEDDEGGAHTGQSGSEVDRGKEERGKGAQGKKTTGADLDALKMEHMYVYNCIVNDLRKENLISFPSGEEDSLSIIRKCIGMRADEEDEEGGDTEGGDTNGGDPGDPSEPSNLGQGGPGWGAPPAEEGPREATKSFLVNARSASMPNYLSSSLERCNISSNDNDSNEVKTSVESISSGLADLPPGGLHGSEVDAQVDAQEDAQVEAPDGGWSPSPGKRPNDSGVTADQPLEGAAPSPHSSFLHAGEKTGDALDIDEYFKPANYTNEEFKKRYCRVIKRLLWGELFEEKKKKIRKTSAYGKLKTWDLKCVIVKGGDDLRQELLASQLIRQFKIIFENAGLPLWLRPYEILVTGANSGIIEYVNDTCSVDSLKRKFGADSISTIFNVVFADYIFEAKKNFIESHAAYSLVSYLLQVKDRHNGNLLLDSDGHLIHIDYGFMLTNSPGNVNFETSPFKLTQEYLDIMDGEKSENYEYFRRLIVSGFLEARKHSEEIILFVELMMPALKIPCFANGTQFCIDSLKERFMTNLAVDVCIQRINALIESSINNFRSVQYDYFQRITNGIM

As a reminder, the solubility is the dissolved amount per volume that the medium holds. A lower solubility goes with little dissolved substance. Usually IC50 stands for the concentration that gives 50% inhibition. On to `O[C@H]1CNCC[C@@H]1Nc1ccnc2ccc(-c3ccc(C(F)(F)F)nc3)nc12` (racemic) [Compound 28, rac-trans-4-[[6-[6-(Trifluoromethyl)pyridin-3-yl]-1,5-naphthyridin-4-yl]amino]piperidin-3-ol], for which the solubility at 20 h in [1] worked out at 200 µM (≈ 77.9 µg/mL). Besides, the IC50 was more than 50 µM in [2] (Cricetulus griseus, CHO); 0.168 ± 0.055 µM in [3] (setting [5]); 0.212 ± 0.127 µM with Dd2; 95 ± 16 µM with β-hematin (βH) formation; 0.182 ± 0.044 µM in the series with Dd2_PI4K_CNV; 0.967 ± 0.163 µM at PvPI4K. Further, the IC50 in series [4] (setting [6]) turned out to be 0.624 ± 0.076 µM.
`N[C@@H]1CCN(c2ccnc3ccc(-c4ccc(C(F)(F)F)nc4)nc23)C1` [Compound 13, (3R)-1-[6-[6-(Trifluoromethyl)pyridin-3-yl]-1,5-naphthyridin-4-yl]pyrrolidin-3-amine] returned a solubility at 20 h in series [1] of 135 µM (≈ 48.5 µg/mL). Further, the 50% inhibitory concentration (IC50) worked out at 20 µM in [2] (Cricetulus griseus, CHO); 0.06 ± 0.008 µM in series [3] (setting [5]); 1.2 ± 0.481 µM at PvPI4K; 0.11 ± 0.013 µM in [4] (setting [6]).
Molecule `NC1CCN(c2ccnc3ccc(-c4ccc(C(F)(F)F)nc4)nc23)CC1` [Compound 18, 1-[6-[6-(Trifluoromethyl)pyridin-3-yl]-1,5-naphthyridin-4-yl]piperidin-4-amine] returned a solubility at 20 h in [1] of 160 µM (≈ 59.7 µg/mL). Also, the IC50 is more than 50 µM in series [2] (Cricetulus griseus, CHO); 0.42 ± 0.087 µM in [3] (setting [5]); 137 ± 4 µM in the series on β-hematin (βH) formation; 0.559 ± 0.03 µM on PvPI4K; 0.477 ± 0.034 µM in series [4] (setting [6]).
`FC(F)(F)c1ccc(-c2ccc3nccc(NCC4CCNCC4)c3n2)cn1` [Compound 20, N-(Piperidin-4-ylmethyl)-6-[6-(trifluoromethyl)pyridin-3-yl]-1,5-naphthyridin-4-amine]: in [1], the concentration in solution (solubility at 20 h) came to 190 µM (≈ 73.6 µg/mL). For the same molecule, the IC50 in [2] (Cricetulus griseus, CHO) is more than 50 µM; in series [3] (setting [5]), 0.065 ± 0.002 µM; with β-hematin (βH) formation, 37 µM and < 60 µM; on PvPI4K, 1.51 ± 0.643 µM; in series [4] (setting [6]), 0.35 ± 0.004 µM.
For the molecule `OCCN1CCC(Nc2ccnc3ccc(-c4ccc(C(F)(F)F)nc4)nc23)CC1` [Compound 22, 2-[4-[[6-[6-(Trifluoromethyl)pyridin-3-yl]-1,5-naphthyridin-4-yl]amino]piperidin-1-yl]ethanol], the solubility at 20 h in series [1] was determined as 145 µM (≈ 60.5 µg/mL). Besides, the IC50 in series [3] (setting [5]) stood at 0.253 ± 0.002 µM; on PvPI4K, 0.303 ± 0.074 µM; in series [4] (setting [6]) it was 0.385 ± 0.041 µM.
For the molecule `CC1CNCCC1Nc1ccnc2ccc(-c3ccc(C(F)(F)F)nc3)nc12` (stereo not drawn) [Compound 24, N-(3-Methylpiperidin-4-yl)-6-[6-(trifluoromethyl)pyridin-3-yl]-1,5-naphthyridin-4-amine], the solubility at 20 h in series [1] was 195 µM (≈ 75.5 µg/mL). In addition, the half-inhibitory concentration (IC50) in series [2] (Cricetulus griseus, CHO) is 47 µM; in series [3] (setting [5]), 0.05 ± 0.025 µM; on PvPI4K, 0.131 ± 0.089 µM; in series [4] (setting [6]), 0.104 ± 0.009 µM.
On to `CN1CCC(Nc2ccnc3ccc(-c4cccnc4)nc23)CC1` [Compound 29, N-(1-Methylpiperidin-4-yl)-6-pyridin-3-yl-1,5-naphthyridin-4-amine], for which the concentration in solution in series [1] (solubility at 20 h) came to 195 µM (≈ 62.3 µg/mL). Moreover, the IC50 in series [2] (Cricetulus griseus, CHO) was more than 50 µM; in [3] (setting [5]), 0.526 ± 0.047 µM; at PvPI4K it was 0.064 ± 0.014 µM; in series [4] (setting [6]) it was 1.28 ± 0.148 µM.
Consider `CN1CCC(Nc2ccnc3ccc(-c4cccnc4C(F)(F)F)nc23)CC1` [Compound 30, N-(1-Methylpiperidin-4-yl)-6-[2-(trifluoromethyl)pyridin-3-yl]-1,5-naphthyridin-4-amine], for which the solubility at 20 h in series [1] worked out at 200 µM (≈ 77.5 µg/mL). Further, the IC50 in series [2] (Cricetulus griseus, CHO) is more than 50 µM; in series [3] (setting [5]), 0.27 ± 0.096 µM; in the series on β-hematin (βH) formation, 75 ± 6 µM; at PvPI4K, 0.17 ± 0.038 µM; in series [4] (setting [6]), 0.3 ± 0.011 µM.
Consider `Cc1nc(C(F)(F)F)ccc1-c1ccc2nccc(NC3CCN(C)CC3)c2n1` [Compound 31, N-(1-Methylpiperidin-4-yl)-6-[2-methyl-6-(trifluoromethyl)pyridin-3-yl]-1,5-naphthyridin-4-amine], for which the solubility at 20 h in series [1] came out at 195 µM (≈ 78.3 µg/mL). Also, the IC50 in series [2] (Cricetulus griseus, CHO) is more than 50 µM; in series [3] (setting [5]), 0.499 ± 0.024 µM; on PvPI4K, 0.174 ± 0.102 µM; in [4] (setting [6]), 0.367 ± 0.005 µM.
Take `CN1CCC(Nc2ccnc3ccc(-c4ccc(C#N)nc4)nc23)CC1` [Compound 32, 5-[8-[(1-Methylpiperidin-4-yl)amino]-1,5-naphthyridin-2-yl]pyridine-2-carbonitrile]: the solubility at 20 h in [1] was found to be 200 µM (≈ 68.9 µg/mL). In addition, the IC50 in series [2] (Cricetulus griseus, CHO) was more than 50 µM; in series [3] (setting [5]), 0.16 ± 0.04 µM; in the series on β-hematin (βH) formation, 51 ± 2 µM; at PvPI4K, 0.676 ± 0.023 µM; in series [4] (setting [6]), 0.73 ± 0.053 µM.
Take `CNC(=O)c1ccc(-c2ccc3nccc(NC4CCN(C)CC4)c3n2)cn1` [Compound 33, N-Methyl-5-[8-[(1-methylpiperidin-4-yl)amino]-1,5-naphthyridin-2-yl]pyridine-2-carboxamide]: the half-maximal inhibitory concentration (IC50) is 25 µM in series [2] (Cricetulus griseus, CHO); 0.4 ± 0.001 µM in [3] (setting [5]); 131 ± 6 µM in the series with β-hematin (βH) formation; 0.077 ± 0.048 µM on PvPI4K; more than 6 µM in [4] (setting [6]).
Take `CN1CCC(Nc2ccnc3ccc(-c4ccc(OCCCO)nc4)nc23)CC1` [Compound 35, 3-[5-[8-[(1-Methylpiperidin-4-yl)amino]-1,5-naphthyridin-2-yl]pyridin-2-yl]oxypropan-1-ol]: in series [1], the solubility at 20 h amounted to 200 µM (≈ 78.7 µg/mL). For the same molecule, the 50% inhibitory concentration (IC50) in series [2] (Cricetulus griseus, CHO) is more than 50 µM; in series [3] (setting [5]) it was 0.203 ± 0.006 µM; in the series on β-hematin (βH) formation, more than 200 µM; at PvPI4K it was 0.019 ± 0.012 µM; in series [4] (setting [6]), 0.462 ± 0.052 µM.
For the molecule `CN1CCC(Nc2cc(N)nc3ccc(-c4ccc(C(F)(F)F)nc4)nc23)CC1` [Compound 36, 4-N-(1-Methylpiperidin-4-yl)-6-[6-(trifluoromethyl)pyridin-3-yl]-1,5-naphthyridine-2,4-diamine], the concentration in solution in series [1] (solubility at 20 h) came to 180 µM (≈ 72.4 µg/mL). Also, the half-maximal inhibitory concentration (IC50) was 26 µM in [2] (Cricetulus griseus, CHO); 0.04 ± 0.011 µM in [3] (setting [5]); 35 µM and < 60 µM in the series on β-hematin (βH) formation; 9.4 ± 0.849 µM on PvPI4K; 0.192 ± 0.007 µM in series [4] (setting [6]).
As usually defined, the AC50 is the concentration at which the activity in the assay is half-maximal. A high value points to weaker potency. One may read the LC50 as the concentration lethal to half of the exposed cells or organisms. Take `CCN(CC)c1ccc(C=O)cc1` [DEAB, Diethylaminobenzaldehyde]: the activity in the series “in vivo” (50% larvae population show a teratogenic phenotype) was half-maximal at 1 µM (AC50). The molecule also had an LC50 at 96 h in the series “in vivo” (concentration at which 50% of larvae die at 96 h post fertilization) of 4.6 µM. In addition, the teratogen entry in the series with zebrafish embryos (classification) is reported as “yes”. In addition, in the series on zebrafish embryos (ratio between LC50 and AC50, >3 classifies as teratogen), the “TI (teratogenic index)” value was determined as 4.6.
For the molecule “(R)-6-(6-Methoxypyridin-3-yl)-N-(pyrrolidin-3-yl)-1,5-naphthyridin-4-amine [Compound 34]”, the 50% inhibitory concentration (IC50) in [2] was 17 µM; in series [3] it was 0.225 ± 0.007 µM; on PvPI4K it was 0.111 ± 0.069 µM; in series [4], 0.667 ± 0.06 µM.
